This assay has as its system HCV genotype 1b replicon in Huh 7 cells. The assay is described as follows: HCV replicon assay (luciferase readout, 1b_Huh-Luc/Neo-ET cell line). To be noted: Hepatitis C virus, Huh-7, 72 h. In kind it is cell-based. The essentials: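 Huh 7 cells carrying a bicistronic genotype 1b luciferase replicon treated with compound in triplicate for 72 h. Replicon level read as luciferase activity (Bright-Glo), expressed as % of control; EC50 from a sigmoidal Hill-slope fit, repeated several times.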

The mark [1] stands for this setting: read-out: Inhibition of HCV genotype 1b, Table 3, 72 h incubation.
Where [2] appears, read: read-out: Inhibition of HCV genotype 1b, Table 1, 72 h incubation.
Where [3] appears, read: read-out: Inhibition of HCV genotype 1b, Table 5, 72 h incubation.
Where [4] appears, read: read-out: Inhibition of HCV genotype 1b, Table 4, 72 h incubation.
[5] abbreviates: read-out: Inhibition of HCV genotype 1b, Table 2, 72 h incubation.

Like-named read-outs stand apart in the source and are kept apart here. Some results are limits rather than exact numbers.

Turning to `COC(=O)N[C@@H](C(=O)N1CCC[C@H]1c1ncc(-c2cc(F)c(N3CCC(c4cnc([C@@H]5COCCN5C(=O)[C@H](NC(=O)OC)c5ccccc5)[nH]4)CC3)c(F)c2)[nH]1)c1ccccc1` [compound 492], the EC50 under setting [1] was < 1 nM.
Still for that read-out and setting: the figure for `COC(=O)N[C@@H](C(=O)N1CCOC[C@H]1c1ncc(-c2cc(F)c(N3CCC(c4cnc([C@@H]5CCCN5C(=O)[C@H](NC(=O)OC)c5ccccc5)[nH]4)CC3)c(F)c2)[nH]1)c1ccccc1` [compound 507] is < 1 nM.
For `CC(C)[C@H](NC(=O)N1CCOCC1)C(=O)N1CCC[C@H]1c1ncc(-c2ccc([C@H]3CC[C@@H](c4cnc([C@@H]5CCCN5C(=O)[C@@H](NC(=O)N5CCOCC5)C(C)C)[nH]4)CC3)cc2)[nH]1` [compound 386], the EC50 under setting [2] was in the range of 10 to 999 nM.
In the case of `O=C(N[C@@H](C(=O)N1CCC[C@H]1c1ncc(-c2ccc(C3CCC(c4cnc([C@@H]5CCCN5C(=O)[C@H](NC(=O)N5CCOCC5)c5ccccc5)o4)CC3)cc2)[nH]1)c1ccccc1)N1CCOCC1` (stereo partly shown) [compound 358], the EC50 under setting [2] was < 1 nM.
Turning to `COC(=O)N[C@@H](C(=O)N1CCC[C@H]1c1ncc(-c2cc(F)c(N3CCC(c4cnc([C@@H]5CCCN5C(=O)[C@H](NS(C)(=O)=O)c5ccccc5)[nH]4)CC3)c(F)c2)[nH]1)c1ccccc1` [compound 474], the EC50 under setting [1] is < 1 nM.
Take `COC(=O)N[C@@H](C(=O)N1CCC[C@H]1c1ncc(C2CCC(c3ccc(-c4cnc([C@@H]5CCCN5C(=O)[C@@H](c5ccccc5)N5CCOCC5)[nH]4)cc3)CC2)[nH]1)c1ccccc1` (stereo partly shown) [compound 378]: under setting [2], the EC50 was < 1 nM.
As to `COC(=O)N[C@@H](C(=O)N1CCC[C@H]1c1ncc(C2CCC(c3ccc(-c4cnc([C@@H]5CCCN5C(=O)[C@@H](c5ccccc5)N5CCCC5)[nH]4)cc3)CC2)[nH]1)c1ccccc1` (stereo partly shown) [compound 379], the EC50 under setting [2] was < 1 nM.
The same measure, in the same setting: the figure for `COC(=O)N[C@@H](C(=O)N1CCC[C@H]1c1ncc(-c2ccc([C@H]3CC[C@@H](NC(=O)[C@@H]4CCCN4C(=O)[C@H](NC(=O)N4CCOCC4)c4ccccc4)CC3)cc2)[nH]1)c1ccccc1` [compound 370] is 1 to 9.9 nM.
Take `COC(=O)N[C@H](C(=O)N1CCC[C@H]1c1ncc(-c2ccc(C34CCC(c5cnc([C@@H]6CCCN6C(=O)[C@H](NC6CCOCC6)c6ccccc6)[nH]5)(CC3)CC4)cc2)[nH]1)C(C)C` [compound 2064]: the EC50 under setting [3] was < 1 nM.
Regarding `CC(C)(C)OC(=O)N[C@@H](C(=O)N1CCC[C@H]1c1ncc(-c2ccc(C3CCC(c4cnc([C@@H]5CCCN5C(=O)[C@H](NC(=O)OC(C)(C)C)c5ccccc5)[nH]4)CC3)cc2)[nH]1)c1ccccc1` (stereo partly shown) [compound 367], the EC50 under setting [2] is < 1 nM.
On the same count and under the same terms, the result for `CC(C)(C)OC(=O)N[C@@H](C(=O)N1CCC[C@H]1C(=O)N[C@H]1CC[C@H](c2cccc(-c3cnc([C@@H]4CCCN4C(=O)[C@H](NC(=O)OC(C)(C)C)c4ccccc4)[nH]3)c2)CC1)c1ccccc1` [compound 362] reads 1 to 9.9 nM.
With `COC(=O)N[C@H](C(=O)N1CCC[C@H]1c1ncc(C23CCC(c4ccc(-c5cnc([C@@H]6CCCN6C(=O)[C@H](NC(=O)N6CCC(O)CC6)C(C)C)[nH]5)cc4)(CC2)CC3)[nH]1)C(C)C` [compound 2076], the EC50 under setting [3] is < 1 nM.
For the molecule `COC(=O)N[C@@H](C(=O)N1CCC[C@H]1c1ncc(-c2ccc(C34CCC(c5cnc([C@@H]6CCCN6C(=O)[C@@H](NC(=O)N6CCOCC6)C(C)C)[nH]5)(CC3)CC4)cc2)[nH]1)c1ccccc1` [compound 2052], under setting [3], the EC50 is < 1 nM.
For `COC(=O)N[C@@H](C(=O)N1CCC[C@H]1c1ncc(-c2ccc(C34CCC(c5cnc([C@@H]6CCCN6C(=O)[C@H](C(C)C)N(C)C)[nH]5)(CC3)CC4)cc2)[nH]1)c1ccccc1` [compound 2063], the EC50 under setting [3] is < 1 nM.
The same measure, in the same setting: the figure for `COC(=O)N[C@H](C(=O)N1CCC[C@H]1c1ncc(-c2ccc(C34CCC(c5cnc([C@@H]6CCCN6C(=O)[C@@H](C(C)C)N(C)C)[nH]5)(CC3)CC4)cc2)[nH]1)C(C)C` [compound 2057] is < 1 nM; for `COC(=O)N[C@H](C(=O)N[C@@H](C)c1ncc(-c2ccc(C34CCC(c5cnc([C@@H]6CCCN6C(=O)[C@@H](NC(=O)OC)C(C)C)[nH]5)(CC3)CC4)cc2)[nH]1)C(C)C` [compound 2074] it is < 1 nM; for `COC(=O)N[C@H](C(=O)N1CCC[C@H]1c1ncc(C23CCC(c4ccc(-c5cnc([C@@H]6CCCN6C(=O)[C@H](NC(=O)OC6CCOCC6)C(C)C)[nH]5)cc4)(CC2)CC3)[nH]1)C(C)C` [compound 2080] it is < 1 nM.
Same read-out and setting: the result for `CC(C)(C)OC(=O)N[C@H](C(=O)N1CCC[C@H]1c1ncc(-c2ccc(C34CCC(c5cnc([C@@H]6CCCN6C(=O)[C@H](NC(=O)OC(C)(C)C)c6ccccc6)[nH]5)(CC3)CC4)cc2)[nH]1)c1ccccc1` [compound 601] reads < 1 nM.
Regarding `COC(=O)N[C@@H](C(=O)N1CCC[C@H]1c1ncc(C2CCC(c3ccc(-c4cnc([C@@H]5CCCN5C(=O)[C@@H](c5ccccc5)N(C)C)[nH]4)cc3)CC2)[nH]1)c1ccccc1` (stereo partly shown) [compound 377], the EC50 under setting [2] was < 1 nM.
As for `COC(=O)N[C@H](C(=O)N1CCC[C@H]1c1nc2ccc(-c3ccc(-c4ccc5nc([C@H](C)NC(=O)[C@@H](c6ccccc6)N(C)C)[nH]c5c4)cc3)cc2[nH]1)C(C)C` [compound 939], the EC50 under setting [4] is < 1 nM.
Consider `COC(=O)N[C@H](C(=O)N1CCC[C@H]1c1ncc(-c2ccc([C@H]3CC[C@H](c4cnc([C@@H]5CCCN5C(=O)[C@H](NC(=O)OC)c5ccccc5)[nH]4)CC3)cc2)[nH]1)C(C)C` [compound 2001], for which the EC50 under setting [2] was < 1 nM.
Turning to `O=C(NC1CCN(c2ccc(-c3cnc([C@@H]4CCCN4C(=O)[C@H](NC(=O)N4CCOCC4)c4ccccc4)[nH]3)cc2F)CC1)[C@@H]1CCCN1C(=O)[C@H](NC(=O)N1CCOCC1)c1ccccc1` [compound 455], the EC50 under setting [1] lay in the range of 1 to 9.9 nM.
Turning to `COC(=O)N[C@H](C(=O)N1CCC[C@H]1c1ncc(-c2ccc(-c3ccc4nc([C@@H]5CCCN5C(=O)[C@@H](NC(=O)OC)[C@@H](C)OC)[nH]c4c3)cc2)[nH]1)[C@@H](C)OC` [compound 402], under setting [5], the EC50 is < 1 nM.
As for `COC(=O)N[C@@H](C(=O)N1CCC[C@H]1c1ncc(-c2cc(F)c(N3CCC(c4cnc([C@@H]5CCCCN5C(=O)[C@H](NC(=O)OC)C(C)C)[nH]4)CC3)c(F)c2)[nH]1)C(C)C` [compound 504], under setting [1], the EC50 was > 1000 nM.
Turning to `COC(=O)N[C@H](C(=O)N1CCC[C@H]1c1ncc(-c2ccc(C34CCC(c5cnc([C@@H]6CCCN6C(=O)[C@@H](NC(=O)OC)C6CCOCC6)[nH]5)(CC3)CC4)cc2)[nH]1)C(C)C` [compound 2106], under setting [3], the EC50 was < 1 nM.
Take `O=C(N[C@@H](C(=O)N1CCOC[C@H]1c1ncc(-c2cc(F)c(N3CCC(c4cnc([C@@H]5CCCN5C(=O)[C@H](NC(=O)C5CC5)c5ccccc5)[nH]4)CC3)c(F)c2)[nH]1)c1ccccc1)C1CC1` [compound 510]: the EC50 under setting [1] was < 1 nM.
Turning to `COC(=O)N[C@@H](C(=O)N1CCC[C@H]1c1ncc(-c2ccc(-c3ccc4nc([C@@H]5CCCN5C(=O)[C@H](NC(=O)OC)c5ccccc5)[nH]c4c3)cc2)[nH]1)c1ccccc1` [compound 401], the EC50 under setting [5] is < 1 nM.
With `COC(=O)N[C@H](C(=O)N1CCC[C@H]1c1ncc(C23CCC(c4ccc(-c5cnc([C@@H]6CCCN6C(=O)[C@H](C(C)C)N(C)C(=O)OC)[nH]5)cc4)(CC2)CC3)[nH]1)C(C)C` [compound 912], the EC50 under setting [3] was < 1 nM.
Consider `COC(=O)N[C@@H](C(=O)N1CCC[C@H]1c1ncc(-c2cc(F)c(N3CCC(c4cnc([C@@H]5CCCCN5C(=O)[C@H](NC(=O)OC)C(C)C)[nH]4)CC3)c(F)c2)[nH]1)c1ccccc1` [compound 501], for which the EC50 under setting [1] was < 1 nM.
Same read-out and setting: the figure for `COC(=O)N[C@@H](C(=O)N1CCCC[C@H]1c1ncc(C2CCN(c3c(F)cc(-c4cnc([C@@H]5CCCN5C(=O)[C@@H](c5ccccc5)N5CCCCC5)[nH]4)cc3F)CC2)[nH]1)c1ccccc1` [compound 491] is < 1 nM.
In the case of `CC(C)[C@@H](NC(=O)OC(C)(C)C)C(=O)N1CCC[C@H]1C(=O)N[C@H]1CC[C@@H](c2ccc(-c3cnc([C@@H]4CCCN4C(=O)[C@H](NC(=O)OC(C)(C)C)C(C)C)[nH]3)cc2)CC1` [compound 357], the EC50 under setting [2] is 10 to 999 nM.
With `COC(=O)N[C@H](C(=O)N1CCC[C@H]1c1ncc(-c2ccc([C@H]3CC[C@](C)(c4cnc([C@@H]5CCCN5C(=O)[C@@H](NC(=O)OC)C(C)C)[nH]4)CC3)cc2)[nH]1)C(C)C` [compound 2005], the EC50 under setting [2] is < 1 nM.
Consider `COC(=O)N[C@H](C(=O)N1CCC[C@H]1c1ncc(-c2ccc(C34CCC(c5cnc([C@@H]6CCCN6C(=O)[C@@H](NC(=O)N6CCOCC6)C(C)C)[nH]5)(CC3)CC4)cc2)[nH]1)C(C)C` [compound 2060], for which the EC50 under setting [3] was < 1 nM.
Same read-out and setting: the result for `COC(=O)N[C@H](C(=O)N1CCC[C@H]1c1ncc(C23CCC(c4ccc(-c5cnc([C@@H]6CCCN6C(=O)[C@@H](NC(=O)N6CCC[C@H]6CO)C(C)C)[nH]5)cc4)(CC2)CC3)[nH]1)C(C)C` [compound 652] reads < 1 nM.
For the molecule `CC(C)(C)OC(=O)N[C@@H](C(=O)N1CCC[C@H]1c1ncc(-c2cc(F)c(N3CCC(c4cnc([C@@H]5CCCCN5C(=O)[C@H](NC(=O)OC(C)(C)C)c5ccccc5)[nH]4)CC3)c(F)c2)[nH]1)c1ccccc1` [compound 483], the EC50 under setting [1] is < 1 nM.
For the molecule `COC(=O)N[C@H](C(=O)N1CCC[C@H]1c1nc2ccc(-c3cnc(-c4ccc5nc([C@@H]6CCCN6C(=O)[C@@H](NC(=O)OC)C(C)C)[nH]c5c4)cn3)cc2[nH]1)C(C)C` [compound 2036], the EC50 under setting [4] was < 1 nM.
Take `COC(=O)N[C@@H](C(=O)N1CCC[C@H]1c1ncc(-c2cc(F)c(N3CCC(c4cnc([C@@H]5CCCN5C(=O)[C@H](NC(=O)N5CCCCC5)c5ccccc5)[nH]4)CC3)c(F)c2)[nH]1)c1ccccc1` [compound 488]: under setting [1], the EC50 is < 1 nM.

The record behind these values is patent publication US9120779B2, “Inhibitors of HCV NS5A” (PRESIDIO PHARMACEUTICALS, INC., priority 2008, dated 2015).
